From patent publication US20210169984A1, “SENSITIZING CANCER TO DEATH RECEPTOR AGONISTS WITH KINASE INHIBITORS” (The Johns Hopkins University, priority 2016, published 2021)

test system: A549 lung carcinoma cells; assay: KI library screen for TRAIL sensitization; format: cell-based, human; details: not given
Excerpt: (§1) A library of KIs was screened for TRAIL sensitization in various TRAIL-resistant cancer cells, including: HT29 (CRC), MDA-MB-231 (breast), LNCAP (prostate), DU145 (prostate), PC3 (prostate) and A549 (lung). […] The 355 KIs comprised of compounds targeting diverse kinases, including multi kinases, RTK (receptor kinase tyrosine), PI3K (phosphinistide 3-kinase), aurora kinases, including […] (mitogen-activated protein kinase). […] The interaction between KIs and TRAIL had been previously explored in vitro with the tyrosine KI sorafenib, a drug similar to regorafenib. However, such studies were mostly performed on cellular levels and not in in vivo models, combined with systemically administered recombinant TRAIL. Although a similar structure, regorafenib was newly approved in 2012. The interactions between the three other selected KIs and TRAIL have not been previously reported, in vitro or in vivo.

Row | Molecule | KIs that sensitize cancer cells to TRAIL-based agents
1 | C=CC(=O)Nc1cccc(Oc2nc(Nc3ccc(N4CCN(C)CC4)cc3OC)ncc2Cl)c1 [WZ4002] | Example KIs that sensitize cancer cells to TRAIL-based agents.
2 | COCCOc1ccc2c(c1)ncn2-c1ccc2cccc(N3CCC(N)CC3)c2n1 [CP-673451] | Example KIs that sensitize cancer cells to TRAIL-based agents.
3 | CS(=O)(=O)CCNCc1ccc(-c2ccc3ncnc(Nc4ccc(OCc5cccc(F)c5)c(Cl)c4)c3c2)o1 [Lapatinib (GW-572016) Ditosylate, Lapatinib] | Example KIs that sensitize cancer cells to TRAIL-based agents.

test system: MDA-MB-231 breast cancer cells; assay: KI library screen for TRAIL sensitization; format: cell-based, human; details: not given
Excerpt: as §1

Row | Molecule | KIs that sensitize cancer cells to TRAIL-based agents
4 | COc1cc2ncnc(Nc3ccc(F)c(Cl)c3)c2cc1NC(=O)/C=C/CN1CCCCC1 [Dacomitinib (PF299804, PF299), Dacomitinib] | Example KIs that sensitize cancer cells to TRAIL-based agents.

test system: LNCAP prostate adenocarcinoma cells; assay: KI library screen for TRAIL sensitization; format: cell-based, human; details: not given
Excerpt: as §1

Row | Molecule | KIs that sensitize cancer cells to TRAIL-based agents
5 | CC(C)(C)c1cc(C=C(C#N)C#N)cc(C(C)(C)C)c1O [Tyrphostin 9] | Example KIs that sensitize cancer cells to TRAIL-based agents.
6 | COc1cc2ncc(-c3ccccc3)nc2cc1OC [Tyrphostin AG 1296] | Example KIs that sensitize cancer cells to TRAIL-based agents.
7 | Cn1cc(-c2ccc3nnc(Sc4ccc5ncccc5c4)n3n2)cn1 [SGX-523] | Example KIs that sensitize cancer cells to TRAIL-based agents.
8 | C[C@]1(O)C[C@@H](c2nc(-c3ccc4ccc(-c5ccccc5)nc4c3)c3c(N)nccn32)C1 [OSI-906 (Linsitinib), Linsitinib] | Example KIs that sensitize cancer cells to TRAIL-based agents.
9 | CS(=O)(=O)CCNCc1ccc(-c2ccc3ncnc(Nc4ccc(OCc5cccc(F)c5)c(Cl)c4)c3c2)o1 [Lapatinib (GW-572016) Ditosylate, Lapatinib] | Example KIs that sensitize cancer cells to TRAIL-based agents.
10 | CCN(CC)CCNC(=O)c1c(C)[nH]c(/C=C2\C(=O)Nc3ccc(F)cc32)c1C [Sunitinib Malate] | Example KIs that sensitize cancer cells to TRAIL-based agents.
11 | CNC(=O)c1ccc(-c2cnc3ncc(Cc4ccc5ncccc5c4)n3n2)cc1F [INCB28060] | Example KIs that sensitize cancer cells to TRAIL-based agents.
12 | COc1cc2ncnc(Nc3ccc(Cl)cc3F)c2cc1OC [ZM 306416] | Example KIs that sensitize cancer cells to TRAIL-based agents.

test system: DU-145 prostate adenocarcinoma cells; assay: KI library screen for TRAIL sensitization; format: cell-based, human; details: not given
Excerpt: as §1

Row | Molecule | KIs that sensitize cancer cells to TRAIL-based agents
13 | CC(C)(C)c1cc(C=C(C#N)C#N)cc(C(C)(C)C)c1O [Tyrphostin 9] | Example KIs that sensitize cancer cells to TRAIL-based agents.
14 | COc1cc2c(Oc3ccc(NC(=O)C4(C(=O)Nc5ccc(F)cc5)CC4)cc3F)ccnc2cc1OCCCN1CCOCC1 [Foretinib (GSK1363089), Foretinib] | Example KIs that sensitize cancer cells to TRAIL-based agents.
15 | COc1cc(N2CCC(N)CC2)ccc1Nc1ncc(Cl)c(-c2c[nH]c3ccccc23)n1 [AZD3463] | Example KIs that sensitize cancer cells to TRAIL-based agents.
16 | COc1cc2ncnc(Nc3ccc(F)c(Cl)c3)c2cc1NC(=O)/C=C/CN1CCCCC1 [Dacomitinib (PF299804, PF299), Dacomitinib] | Example KIs that sensitize cancer cells to TRAIL-based agents.
17 | CCOc1cc2ncc(C#N)c(Nc3ccc(OCc4ccccn4)c(Cl)c3)c2cc1NC(=O)/C=C/CN(C)C [Neratinib (HKI-272), Neratinib] | Example KIs that sensitize cancer cells to TRAIL-based agents.
18 | C=CC(=O)Nc1ccc2ncnc(Nc3ccc(OCc4cccc(F)c4)c(Cl)c3)c2c1 [AST-1306] | Example KIs that sensitize cancer cells to TRAIL-based agents.

test system: not given; assay: not given; details: mouse, in vivo; cited from earlier work

Row | Molecule | circulating half-life
19 | 10K-PEG-TRAIL: TRAIL derivatized with 10K PEG (Kim, et al.) | 6.2 h
20 | 2K-PEG-TRAIL: TRAIL derivatized with 2K PEG (Kim, et al.) | 3.9 h
21 | 5K-PEG-TRAIL: TRAIL derivatized with 5K PEG (Kim, et al.) | 5.3 h
22 | 30K-PEG-TRAIL: TRAIL derivatized with 30K PEG (Kim, et al.) | 17.7 h
23 | 20K-PEG-TRAIL: TRAIL derivatized with 20K PEG (Kim, et al.) | 12.3 h

test system: HP LNCAP prostate adenocarcinoma cells; assay: KI library screen for TRAIL sensitization; format: cell-based, human; details: not given
Excerpt: as §1
Regorafenib potentiated TRAIL-induced apoptosis in prostate cancer cells (LNCAP, HPLNCAP (High Passages LNCAP), DU-145 and PC-3) when combined with TRAILPEG (1 μg/mL) (FIG. 5). After treating cells with regorafenib (5 μM), caspases and anti-apoptotic proteins were analyzed by western blotting (FIG. 6A-FIG. 6C). […] Data confirmed that FDA-approved KIs or KIs under clinical development synergized with long-acting TRAILPEG by overcoming TRAIL-resistance through unique TRAIL sensitization mechanisms.

Row | Molecule | KIs that sensitize cancer cells to TRAIL-based agents
24 | CC(C)(C)c1cc(C=C(C#N)C#N)cc(C(C)(C)C)c1O [Tyrphostin 9] | Example KIs that sensitize cancer cells to TRAIL-based agents.
25 | C=CC(=O)Nc1cccc(Oc2nc(Nc3ccc(N4CCN(C)CC4)cc3OC)ncc2Cl)c1 [WZ4002] | Example KIs that sensitize cancer cells to TRAIL-based agents.
26 | CC(C)(C)c1cc(/C=C(\C#N)C(N)=S)cc(C(C)(C)C)c1O [Tyrphostin AG 879] | Example KIs that sensitize cancer cells to TRAIL-based agents.
27 | Cn1cc(-c2ccc3nnc(Sc4ccc5ncccc5c4)n3n2)cn1 [SGX-523] | Example KIs that sensitize cancer cells to TRAIL-based agents.
28 | C=CC(=O)Nc1ccc2ncnc(Nc3cccc(Br)c3)c2c1 [PD168393] | Example KIs that sensitize cancer cells to TRAIL-based agents.
29 | COc1cc2nccc(Oc3ccc(NC(=O)NC4CC4)c(Cl)c3)c2cc1C(N)=O [Lenvatinib (E7080), Lenvatinib] | Example KIs that sensitize cancer cells to TRAIL-based agents.

test system: PC3 prostate adenocarcinoma cells; assay: KI library screen for TRAIL sensitization; format: cell-based, human; details: not given
Description: FIG. 2B depicts a bar graph showing quantified cell death after analyzing synergized cell death induced by TRAILPEG (1 μg/mL for 3 hr) and kinase inhibitors (KIs) in HT29 (human colon tumor cell line) and PC3 (human prostate tumor cell line) cells individually pretreated with selected 355 KIs. Relative cell death rates were calculated by [KI+TRAILPEG]/[KI alone] after separate MTT assays. The arrows indicate KIs with >60% cell death; n=3.
as §1

Row | Molecule | KIs that sensitize cancer cells to TRAIL-based agents
30 | CC(C)(C)c1cc(C=C(C#N)C#N)cc(C(C)(C)C)c1O [Tyrphostin 9] | Example KIs that sensitize cancer cells to TRAIL-based agents.
31 | COc1cc(N2CCC(N)CC2)ccc1Nc1ncc(Cl)c(-c2c[nH]c3ccccc23)n1 [AZD3463] | Example KIs that sensitize cancer cells to TRAIL-based agents.
32 | COCCOc1ccc2c(c1)ncn2-c1ccc2cccc(N3CCC(N)CC3)c2n1 [CP-673451] | Example KIs that sensitize cancer cells to TRAIL-based agents.
33 | C=CC(=O)Nc1ccc2ncnc(Nc3ccc(OCc4cccc(F)c4)c(Cl)c3)c2c1 [AST-1306] | Example KIs that sensitize cancer cells to TRAIL-based agents.
